Test results: patent publication US8962553B2, “Method of treating a diabetic subject having a microvascular impairment disorder by a pegylated C-peptide” (Cebix Ab, priority 2011, dated 2015)
Read-outs that look alike come from different tables or passages of the source.

Assays:
[1] = in vivo
[2] = Single-dose pharmacokinetic study of C-peptide in patients with type 1 diabetes; details: human, in vivo; for Vd: 0.45 mg (150 nmol) i.v., mean ± SD
Procedure: (§1) In a single-dose pharmacokinetic study of C-peptide in patients with type 1 diabetes, recombinant human C-peptide was administered subcutaneously at doses of 150 nmol, 600 nmol, 1800 nmol, and intravenously at a dose of 150 nmol with a wash-out period of at least three days.

clinical = details: human, in vivo
Procedure: as §1

[3] = STZ rat Study #1: animal survival and clinical observations; format: in vivo; details: Group 5: 1.5 mg/kg over 24 h by pump, N 10, STZ rats, end of study
Procedure: Male Sprague Dawley rats (Harlan Laboratories, Inc.; Indianapolis, Ind.) weighing approximately 400 g had type 1 diabetes induced on Day 1 by intravenous administration of clinical-grade STZ (Zanosar®; 50 mg/kg in Study #1 and 33 mg/kg in Study #2). On Day 3 (Study #1) or Day 4 (Study #2), blood was collected and K3EDTA plasma was analyzed for endogenous C-peptide levels and animals with C-peptide <0.4 nM were randomized on Day 7 (Study #1) or Day 9 (Study #2) taking into account body weight and blood glucose (criterion in the range 400-600 mg/dL). Randomization was done using Covance's BRAT system.
Insulin (Lantus®, long-acting insulin glargine) was used in both studies and administered subcutaneously in the evening before the start of the 12-hour dark cycle in the animal room (time period when most food consumption takes place). In Study #1, rats were initiated on insulin after there were a number of animal deaths starting early in the study (3 days into the treatment period). All animals were receiving 3 U/day of insulin by the end of the study. […] Additionally to limit dehydration when needed throughout the studies, warm sterile saline (volume determined by veterinarian) was administered to animals, and in particular in Study #2, to animals 24 hours prior to undergoing surgery for pump implantation. […]

[4] = cited from earlier work
[5] = in vivo; cited from earlier work

CC(C)C[C@H](NC(=O)[C@H](C)NC(=O)[C@H](CC(C)C)NC(=O)[C@@H]1CCCN1C(=O)[C@H](CCC(N)=O)NC(=O)[C@H](CC(C)C)NC(=O)[C@H](CO)NC(=O)CNC(=O)[C@H](C)NC(=O)CNC(=O)[C@@H]1CCCN1C(=O)CNC(=O)CNC(=O)CNC(=O)[C@H](CC(C)C)NC(=O)[C@H](CCC(=O)O)NC(=O)[C@@H](NC(=O)[C@H](CCC(N)=O)NC(=O)CNC(=O)[C@@H](NC(=O)[C@H](CCC(N)=O)NC(=O)[C@H](CC(C)C)NC(=O)[C@H](CC(=O)O)NC(=O)[C@H](CCC(=O)O)NC(=O)[C@H](C)NC(=O)[C@@H](N)CCC(=O)O)C(C)C)C(C)C)C(=O)N[C@@H](CCC(=O)O)C(=O)NCC(=O)N[C@@H](CO)C(=O)N[C@@H](CC(C)C)C(=O)N[C@@H](CCC(N)=O)C(=O)O [C-peptide]
dose required to obtain a plasma concentration of 1-3 nM [1]: 10.5 mg/week
dose required to obtain a plasma concentration of 1-3 nM for most of the day [1]: 1.5 mg/day
Cmax ([2]; iv, 0.45 mg): 30.8 ± 6.57 nM
clearance ([2]; iv, 0.45 mg): 250 ± 46 mL/min
Vd ([2]; iv, 0.45 mg, Vss): 10.9 ± 1.97 L
Vd ([2]; iv, 0.45 mg, Vz): 25.6 ± 7.65 L
Cmax ([2]; sc, 0.45 mg): 3.7 ± 1.04 nM
Tmax ([2]; sc, 0.45 mg): 0.833 h
bioavailability ([2]; sc, 0.45 mg): 86.9 ± 12.1%
Cmax ([2]; sc, 1.8 mg): 14.3 ± 3.22 nM
Tmax ([2]; sc, 1.8 mg): 1.08 h
Cmax ([2]; sc, 5.4 mg): 40.3 ± 7.03 nM
Tmax ([2]; sc, 5.4 mg): 1.22 h
half-life (clinical; iv, 0.45 mg): 1.13 h
CL/F (clinical; sc, 0.45 mg): 290 ± 67 mL/min
Vd/F (clinical; sc, 0.45 mg): 28.3 ± 8.96 L
half-life (clinical; sc, 0.45 mg): 1.13 ± 0.35 h
CL/F (clinical; sc, 1.8 mg): 270 ± 47 mL/min
Vd/F (clinical; sc, 1.8 mg): 23.4 ± 5.27 L
half-life (clinical; sc, 1.8 mg): 1.02 h
CL/F (clinical; sc, 5.4 mg): 250 ± 41 mL/min
Vd/F (clinical; sc, 5.4 mg): 24.4 ± 5.47 L
half-life (clinical; sc, 5.4 mg): 1.13 h
Number of Surviving Animals [3]: 1
half-life ([4]; healthy subjects, range of 24.9-45.3 minutes): 0.558 h
half-life ([4]; subjects with type 1 diabetes, range of 39.4-48.5 minutes): 0.708 h

Glargine insulin
duration of activity [5]: 24 h
peak time of effect [5]: no peak effect

Regular insulin: short-acting insulin preparation
onset of action [5]: 30 to 60 min
